{
  "source": "paper PMC5129982",
  "about": "“Screen-identified selective inhibitor of lysine demethylase 5A blocks cancer cell growth and drug resistance” (Oncotarget, 2016)",
  "key": {"FLAG-KDM5A": {"molecular_target": "T1, FLAG-KDM5A (Homo sapiens, UniProt P29375)", "T1 construct": "Sf21 insect cells were infected with baculovirus to express full-length FLAG-KDM5A; made in house; host or cells: Sf21 insect cells (baculovirus)", "T1 sequence (P29375 whole entry)": "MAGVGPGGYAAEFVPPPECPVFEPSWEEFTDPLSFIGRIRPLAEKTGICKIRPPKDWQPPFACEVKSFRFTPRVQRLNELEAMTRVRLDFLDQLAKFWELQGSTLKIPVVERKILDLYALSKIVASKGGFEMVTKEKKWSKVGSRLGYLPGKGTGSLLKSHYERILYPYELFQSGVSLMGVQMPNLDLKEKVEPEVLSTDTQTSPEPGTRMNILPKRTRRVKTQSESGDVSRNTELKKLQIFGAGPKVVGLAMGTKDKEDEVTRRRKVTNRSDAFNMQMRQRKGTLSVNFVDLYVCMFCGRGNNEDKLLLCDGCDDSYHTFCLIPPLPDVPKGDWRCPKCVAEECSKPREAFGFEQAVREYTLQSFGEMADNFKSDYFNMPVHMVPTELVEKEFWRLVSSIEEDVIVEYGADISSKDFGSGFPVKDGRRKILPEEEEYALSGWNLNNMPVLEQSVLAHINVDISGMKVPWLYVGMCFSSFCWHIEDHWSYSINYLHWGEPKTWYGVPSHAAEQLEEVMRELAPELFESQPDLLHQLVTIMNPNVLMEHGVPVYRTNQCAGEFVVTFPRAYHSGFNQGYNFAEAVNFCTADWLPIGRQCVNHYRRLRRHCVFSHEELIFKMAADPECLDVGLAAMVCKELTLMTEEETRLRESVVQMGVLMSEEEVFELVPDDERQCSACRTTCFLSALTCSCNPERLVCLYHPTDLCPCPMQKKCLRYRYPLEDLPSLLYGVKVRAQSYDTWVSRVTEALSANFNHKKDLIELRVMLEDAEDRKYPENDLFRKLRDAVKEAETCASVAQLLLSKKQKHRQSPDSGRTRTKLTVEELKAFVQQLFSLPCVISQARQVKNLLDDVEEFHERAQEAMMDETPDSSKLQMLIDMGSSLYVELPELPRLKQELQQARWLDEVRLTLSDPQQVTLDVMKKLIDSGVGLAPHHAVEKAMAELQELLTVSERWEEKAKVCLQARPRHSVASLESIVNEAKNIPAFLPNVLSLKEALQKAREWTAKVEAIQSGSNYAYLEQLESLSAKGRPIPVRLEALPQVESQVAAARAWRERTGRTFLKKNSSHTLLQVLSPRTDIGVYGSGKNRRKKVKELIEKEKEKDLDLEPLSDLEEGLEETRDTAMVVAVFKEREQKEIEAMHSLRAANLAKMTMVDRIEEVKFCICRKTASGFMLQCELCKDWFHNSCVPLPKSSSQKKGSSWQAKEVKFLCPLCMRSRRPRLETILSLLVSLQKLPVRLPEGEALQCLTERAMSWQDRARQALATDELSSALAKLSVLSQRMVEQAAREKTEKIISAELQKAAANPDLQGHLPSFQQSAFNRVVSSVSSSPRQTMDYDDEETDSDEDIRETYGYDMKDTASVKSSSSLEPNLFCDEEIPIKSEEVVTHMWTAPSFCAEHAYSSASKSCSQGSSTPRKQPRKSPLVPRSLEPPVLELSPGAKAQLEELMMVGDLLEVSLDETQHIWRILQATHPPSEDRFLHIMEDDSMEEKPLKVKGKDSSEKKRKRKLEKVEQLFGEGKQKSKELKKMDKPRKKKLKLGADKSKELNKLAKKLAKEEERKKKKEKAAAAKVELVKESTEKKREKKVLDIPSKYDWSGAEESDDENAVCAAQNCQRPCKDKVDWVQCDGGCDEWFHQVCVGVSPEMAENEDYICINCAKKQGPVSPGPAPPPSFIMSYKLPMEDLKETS", "assay": "AlphaScreen screen of 8,861 compounds for KDM5A inhibitors", "assay_type": "biochemical", "conditions": "20 μM compound, threshold ~30% inhibition", "source_text": "The screen (see schematic in Figure 2A) included 8,861 compounds from selected small molecule libraries, including drugs approved for use in the clinic and diverse collections of compounds representing broad pharmacophore diversity and bioavailability. […] An inhibition threshold of three standard deviations (about 30% inhibition) identified 257 compounds. A counter-screen was used to eliminate any compounds that interfered with the assay itself by detecting the luminescent signal in the presence of the compound and positive control H3K4me2 peptide. The counter-screen validated 170 compounds. We chose 48 compounds from this list for dose-response analysis, including 42 of the top 44 compounds with the highest potency at 20 μM and 6 compounds with drug-like structures.\n8,861 compounds from the ChemBridge MW-Set, ChemBridge DIVERSet, MicroSource Gen-Plus, MicroSource Pure Natural Products, NIH Clinical Collection, and Enzo Epigenetics libraries were screened for inhibition of FLAG-KDM5A demethylase activity. Compounds were dissolved in DMSO and added at 20 μM to 384-well white plates (Corning 3574) containing 64 nM bio-H3K4me3 peptide in demethylase buffer prior to addition of 13 nM FLAG-KDM5A. Hits were selected at a threshold of three standard deviations (~30% inhibition). A counter-screen was performed with the hits to eliminate any non-specific compounds. For this, 20 μM compounds were added to 64 nM bio-H3K4me2 peptide in demethylase buffer with no enzyme. Any hits that interfered with the positive signal detection were eliminated. Dose-response curves were performed on selected hits using 0.1–11 μM of compound. Further validation of top hits was performed using 5 μM of each compound or a dose-response curve using 0.05–50 μM of the compound."}, "full-length FLAG-KDM5A": {"molecular_target": "T2, full-length FLAG-KDM5A (Homo sapiens, UniProt P29375)", "T2 construct": "Sf21 insect cells were infected with baculovirus to express full-length FLAG-KDM5A; made in house; host or cells: Sf21 insect cells (baculovirus)", "T2 sequence (P29375 whole entry)": "as above", "assay": "AlphaScreen KDM5A demethylation assay", "assay_type": "biochemical", "conditions": "for Km: cofactor of KDM5A demethylation, 24 nM FLAG-KDM5A, read-out: average apparent Km", "source_text": "AlphaScreen technology (PerkinElmer) was utilized to perform a screen for small molecule inhibitors of KDM5A. The assay was comprised of two steps, a demethylation reaction followed by detection of the product. A biotinylated H3K4me3 peptide was used as substrate in the demethylation reaction with KDM5A in the presence or absence of small molecule inhibitors. The presence of peptide product (H3K4me1/2) was detected using a product-specific antibody and beads. For this, acceptor beads coated in protein A bound to the antibody, which recognized the peptide product. Donor beads coated in streptavidin bound biotin on the peptide substrate. If the demethylation reaction occurred, the beads were in very close proximity and laser excitation of the donor beads at 680nm caused a transfer of energy in the form of reactive singlet oxygen, resulting in emission by the acceptor beads between 520–620 nm ([30, 31], Figure 1A). The luminescent signal detected was a proxy for the amount of demethylation that occurred.\nReactions were carried out for 1 hour, or were stopped by addition of 30 mM EDTA every 5 minutes for determining enzyme kinetics. Km values were calculated using the Michaelis-Menten non-linear regression analysis on GraphPad Prism 6.0 software. The concentration of DMSO in demethylation reactions was 0.05%. For reactions with catalase, catalase (Sigma C30) or an equal volume of dilution buffer was added to the peptide-containing buffer before addition of the demethylase. The final concentration of catalase in the reactions was 0.01 mg/ml.\n(§1) The AlphaScreen general IgG (protein A) detection kit from PerkinElmer Life Sciences was used as described previously. The luminescence emission was recorded at 570 nm using the AlphaScreen optic module on a Pherastar (BMG Labtech) or Envision (PerkinElmer Life Sciences) microplate reader.\nIC50 values were calculated by log transformation and non-linear regression log(inhibitor) versus response(three parameters) using Graphpad Prism 6.0 software."}, "[1]": {"molecular_target": "T3, FLAG-KDM6B (1043-1682) (JMJD3) (Homo sapiens, UniProt O15054)", "T3 construct": "FLAG-KDM6B (1043-1682) was purchased from BPS Bioscience (50115); FLAG (N); purchased BPS Bioscience 50115", "assay": "AlphaScreen KDM6B demethylation assay", "assay_type": "biochemical", "protocol": "(§2) Histone demethylase assays were performed as described previously, with the exception of all enzyme reactions containing 125 μM α-KG. Enzymes were used at the following approximate concentrations in validation experiments, chosen based on their activity in AlphaScreen assays: 19 nM FLAG-KDM5A, 15 nM FLAG-KDM5B, 6 nM FLAG-KDM5C, 29 nM His-FLAG-KDM6A, and 16 nM FLAG-KDM6B. 24 nM FLAG-KDM5A was used for Km determination experiments. Reactions were carried out for 1 hour, or were stopped by addition of 30 mM EDTA every 5 minutes for determining enzyme kinetics. Km values were calculated using the Michaelis-Menten non-linear regression analysis on GraphPad Prism 6.0 software. The concentration of DMSO in demethylation reactions was 0.05%. For reactions with catalase, catalase (Sigma C30) or an equal volume of dilution buffer was added to the peptide-containing buffer before addition of the demethylase. The final concentration of catalase in the reactions was 0.01 mg/ml.\nas §1"}, "His-FLAG-KDM6A (UTX)": {"molecular_target": "T4, His-FLAG-KDM6A (UTX) (Homo sapiens, UniProt O15550)", "T4 construct": "Full-length FLAG-KDM5B, FLAG-KDM5C, and His-FLAG-KDM6A production was detailed previously; His (N); FLAG (N); made in house", "assay": "AlphaScreen KDM6A demethylation assay", "assay_type": "biochemical", "protocol": "as §2, §1"}, "[2]": {"system": "H3K4 methylation in HeLa cells", "assay": "Western blot of global H3K4 methylation, HeLa", "assay_type": "cell-based, human", "conditions": "HeLa, 48 hr", "protocol": "(§3) Cells were lysed as described previously. Histones were separated by centrifugation, resuspended in Laemmeli buffer, and sonicated. Protein concentration of cell lysates was measured by Bradford assay. Samples in Laemmeli buffer were boiled 10 minutes at 95°C and loaded onto 7% (whole cell lysates) or 18% (histones) SDS-PAGE gels. Membranes were blocked in 4% non-fat milk in Tris-buffered saline with 0.05% Tween (TBS-T) and incubated with primary antibodies in the same buffer or 5% bovine serum albumin in TBS-T overnight at 4°C. Membranes were incubated with secondary anti-rabbit or anti-mouse antibodies for one hour at room temperature. Blots were visualized by Thermo Scientific Pierce ECL Western Blotting Substrate (32106) or EMD Millipore Immobilon Western Chemiluminescent HRP Substrate (WBKLS0100) on film. Signal was quantified using ImageJ software."}, "[3]": {"system": "H3K4 methylation in MCF7 cells", "assay": "Western blot of global H3K4 methylation, MCF7", "assay_type": "cell-based, human", "conditions": "48 hr", "protocol": "as §3"}, "FLAG-KDM5B": {"molecular_target": "T5, FLAG-KDM5B (Homo sapiens, UniProt Q9UGL1)", "T5 construct": "Full-length FLAG-KDM5B, FLAG-KDM5C, and His-FLAG-KDM6A production was detailed previously; FLAG (N); made in house", "T5 sequence (Q9UGL1 whole entry)": "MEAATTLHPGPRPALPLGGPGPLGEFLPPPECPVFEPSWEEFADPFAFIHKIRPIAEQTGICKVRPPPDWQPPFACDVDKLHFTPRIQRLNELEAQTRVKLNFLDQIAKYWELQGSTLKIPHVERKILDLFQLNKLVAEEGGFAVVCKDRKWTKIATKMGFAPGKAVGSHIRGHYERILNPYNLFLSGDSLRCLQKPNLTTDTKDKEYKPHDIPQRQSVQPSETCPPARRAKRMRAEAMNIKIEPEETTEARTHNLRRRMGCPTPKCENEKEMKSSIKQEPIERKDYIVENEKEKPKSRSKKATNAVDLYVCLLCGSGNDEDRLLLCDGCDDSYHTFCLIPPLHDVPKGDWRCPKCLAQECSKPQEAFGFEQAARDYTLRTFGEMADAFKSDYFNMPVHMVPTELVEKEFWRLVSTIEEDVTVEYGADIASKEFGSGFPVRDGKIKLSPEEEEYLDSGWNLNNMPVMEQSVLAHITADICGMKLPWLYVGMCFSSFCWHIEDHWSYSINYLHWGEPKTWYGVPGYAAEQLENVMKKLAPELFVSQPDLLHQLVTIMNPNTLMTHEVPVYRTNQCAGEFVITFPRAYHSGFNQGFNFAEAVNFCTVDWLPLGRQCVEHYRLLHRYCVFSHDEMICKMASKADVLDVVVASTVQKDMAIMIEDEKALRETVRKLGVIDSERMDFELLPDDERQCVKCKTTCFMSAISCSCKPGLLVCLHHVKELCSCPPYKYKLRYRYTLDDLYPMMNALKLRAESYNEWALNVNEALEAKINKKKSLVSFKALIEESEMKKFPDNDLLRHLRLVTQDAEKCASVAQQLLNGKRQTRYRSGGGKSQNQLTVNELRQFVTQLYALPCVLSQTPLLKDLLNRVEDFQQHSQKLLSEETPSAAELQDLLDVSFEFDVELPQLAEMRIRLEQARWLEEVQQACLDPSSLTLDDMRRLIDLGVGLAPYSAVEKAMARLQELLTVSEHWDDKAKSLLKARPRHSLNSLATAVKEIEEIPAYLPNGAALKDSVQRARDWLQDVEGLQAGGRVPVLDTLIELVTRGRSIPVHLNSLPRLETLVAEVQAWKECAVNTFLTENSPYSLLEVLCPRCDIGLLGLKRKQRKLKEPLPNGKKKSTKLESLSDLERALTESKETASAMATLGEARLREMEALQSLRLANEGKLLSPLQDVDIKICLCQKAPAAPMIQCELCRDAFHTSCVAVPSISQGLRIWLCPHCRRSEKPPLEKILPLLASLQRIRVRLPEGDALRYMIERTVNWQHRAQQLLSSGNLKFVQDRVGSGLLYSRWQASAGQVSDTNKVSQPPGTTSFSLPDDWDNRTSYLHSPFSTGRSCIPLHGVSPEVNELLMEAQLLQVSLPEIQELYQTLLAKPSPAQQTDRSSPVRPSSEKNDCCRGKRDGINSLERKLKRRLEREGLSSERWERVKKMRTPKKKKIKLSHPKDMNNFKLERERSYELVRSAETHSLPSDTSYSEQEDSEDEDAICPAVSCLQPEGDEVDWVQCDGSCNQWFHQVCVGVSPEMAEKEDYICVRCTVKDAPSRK", "assay": "AlphaScreen KDM5B demethylation assay", "assay_type": "biochemical", "protocol": "as §2, §1"}, "FLAG-KDM5C": {"molecular_target": "T6, FLAG-KDM5C (Homo sapiens, UniProt P41229)", "T6 construct": "Full-length FLAG-KDM5B, FLAG-KDM5C, and His-FLAG-KDM6A production was detailed previously; FLAG (N); made in house", "T6 sequence (P41229 whole entry)": "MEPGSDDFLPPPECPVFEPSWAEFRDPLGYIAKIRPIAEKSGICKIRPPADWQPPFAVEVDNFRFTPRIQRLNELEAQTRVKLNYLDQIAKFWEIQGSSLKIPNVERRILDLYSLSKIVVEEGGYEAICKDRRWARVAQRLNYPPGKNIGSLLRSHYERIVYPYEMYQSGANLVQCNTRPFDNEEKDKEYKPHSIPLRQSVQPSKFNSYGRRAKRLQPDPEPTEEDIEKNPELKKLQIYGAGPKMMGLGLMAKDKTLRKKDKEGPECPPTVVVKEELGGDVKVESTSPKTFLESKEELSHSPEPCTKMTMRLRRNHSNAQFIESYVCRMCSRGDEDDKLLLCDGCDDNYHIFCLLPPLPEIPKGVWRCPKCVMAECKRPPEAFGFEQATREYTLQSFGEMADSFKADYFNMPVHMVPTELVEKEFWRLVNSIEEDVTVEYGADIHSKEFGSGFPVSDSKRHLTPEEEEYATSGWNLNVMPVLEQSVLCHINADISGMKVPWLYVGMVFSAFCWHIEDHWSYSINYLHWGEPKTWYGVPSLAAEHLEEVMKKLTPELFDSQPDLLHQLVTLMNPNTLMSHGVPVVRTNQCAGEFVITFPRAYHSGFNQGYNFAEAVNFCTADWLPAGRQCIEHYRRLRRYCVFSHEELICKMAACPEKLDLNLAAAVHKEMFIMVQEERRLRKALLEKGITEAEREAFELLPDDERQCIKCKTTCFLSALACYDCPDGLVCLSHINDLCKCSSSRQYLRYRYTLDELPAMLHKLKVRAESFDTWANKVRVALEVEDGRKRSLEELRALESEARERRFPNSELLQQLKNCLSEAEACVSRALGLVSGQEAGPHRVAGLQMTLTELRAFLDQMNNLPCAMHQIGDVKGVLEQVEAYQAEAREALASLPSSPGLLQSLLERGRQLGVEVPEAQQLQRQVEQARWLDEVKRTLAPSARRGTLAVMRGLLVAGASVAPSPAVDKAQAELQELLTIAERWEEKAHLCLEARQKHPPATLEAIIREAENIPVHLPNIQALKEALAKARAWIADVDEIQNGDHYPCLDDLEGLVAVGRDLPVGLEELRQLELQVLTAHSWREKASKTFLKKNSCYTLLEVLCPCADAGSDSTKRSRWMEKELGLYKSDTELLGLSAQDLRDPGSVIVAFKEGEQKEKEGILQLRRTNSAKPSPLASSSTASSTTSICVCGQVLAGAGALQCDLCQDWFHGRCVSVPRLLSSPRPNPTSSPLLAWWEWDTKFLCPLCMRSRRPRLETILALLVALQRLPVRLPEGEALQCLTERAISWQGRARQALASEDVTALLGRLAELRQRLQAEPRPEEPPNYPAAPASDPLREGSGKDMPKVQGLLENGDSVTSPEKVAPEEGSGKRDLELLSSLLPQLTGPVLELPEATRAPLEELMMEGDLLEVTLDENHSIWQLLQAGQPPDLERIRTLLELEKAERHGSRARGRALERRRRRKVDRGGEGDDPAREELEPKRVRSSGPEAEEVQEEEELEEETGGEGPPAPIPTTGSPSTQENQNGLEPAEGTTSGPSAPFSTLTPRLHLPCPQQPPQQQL", "assay": "AlphaScreen KDM5C demethylation assay", "assay_type": "biochemical", "protocol": "as §2, §1"}, "[4]": {"molecular_target": "FLAG-tagged full-length KDM5A (lysine demethylase 5A) (UniProt P29375)", "sequence (P29375 whole entry)": "as the sequence (P29375 whole entry) above"}},
  "note": "pIC50: −log10 of the molar value. Read-outs that look alike come from different tables or passages of the source.",
  "data": [
    {"molecule": "C[C@](N)(Cc1ccc(O)c(O)c1)C(=O)O", "note": "[methyldopa]", "values": [
      {"measurement": "outcome in the KDM5A inhibitor screen", "setting": "FLAG-KDM5A", "value": "active hits"}
    ]},
    {"molecule": "Cc1ccc(-n2sc3ccccc3c2=O)cc1", "note": "[PBIT, 2-4(4-methylphenyl)-1,2-benzisothiazol-3(2H)-one]", "values": [
      {"measurement": "outcome in the KDM5A inhibitor screen", "setting": "FLAG-KDM5A", "value": "active hits"}
    ]},
    {"molecule": "O=C(O)CCC(=O)C(=O)O", "note": "[α-ketoglutarate]", "values": [
      {"measurement": "Km", "setting": "full-length FLAG-KDM5A; listed as α-KG", "value": "~7", "unit": "µM"}
    ]},
    {"molecule": "C=CCn1c(S)nnc1CNC(=O)c1cccc(C)c1", "note": "[YUKA2, N-[(4-allyl-5-mercapto-4H-1,2,4-triazol-3-yl)methyl]-3-methylbenzamide]", "values": [
      {"measurement": "pIC50", "setting": "[1]", "value": "< 4.30"},
      {"measurement": "pIC50", "setting": "His-FLAG-KDM6A (UTX)", "value": "< 4.30"},
      {"measurement": "H3K4me3 Fold (H3K4me3/Total H3, normalized to DMSO)", "setting": "[2]; 50 μM", "value": 1.6},
      {"measurement": "H3K4me3 Fold (H3K4me3/Total H3, normalized to DMSO)", "setting": "[2]; 100 μM", "value": 1.7},
      {"measurement": "mode of inhibition with respect to Fe(II)", "setting": "full-length FLAG-KDM5A", "value": "uncompetitive with respect to Fe(II)"},
      {"measurement": "change of IC50 over a 16-fold range of α-KG concentrations", "setting": "full-length FLAG-KDM5A; 150 nM H3K4me3 peptide, 50 μM Fe(II)", "value": "did not change significantly"},
      {"measurement": "enzyme inhibition at low Fe(II)", "setting": "full-length FLAG-KDM5A; 5 μM Fe(II)", "value": "too weak to generate robust IC50 curves"},
      {"measurement": "effect of catalase on inhibitory potency against KDM5A", "setting": "full-length FLAG-KDM5A; 0.01 mg/ml catalase", "value": "did not affect"},
      {"measurement": "pIC50", "setting": "full-length FLAG-KDM5A; AlphaScreen, 1 hour reaction, 0.05–50 μM compound", "value": 5.88},
      {"measurement": "H3K4me3 Fold (H3K4me3/Total H3, normalized to DMSO)", "setting": "[3]; MCF7, 50 μM", "value": 0.9},
      {"measurement": "H3K4me3 Fold (H3K4me3/Total H3, normalized to DMSO)", "setting": "[3]; MCF7, 100 μM", "value": 0.8},
      {"measurement": "pIC50", "setting": "FLAG-KDM5B; AlphaScreen", "value": "< 4.30"},
      {"measurement": "activity against KDM5B", "setting": "FLAG-KDM5B; at 50 μM", "value": "no activity"},
      {"measurement": "fold less active against KDM5C (than KDM5A)", "setting": "FLAG-KDM5C", "value": "~5", "unit": "fold"},
      {"measurement": "pIC50", "setting": "FLAG-KDM5C; AlphaScreen", "value": 5.18}
    ]},
    {"molecule": "O=C(O)c1ccnc(C(=O)O)c1", "note": "[2,4-PDCA, 2,4-pyridinedicarboxylic acid]", "values": [
      {"measurement": "outcome in the KDM5A inhibitor screen", "setting": "FLAG-KDM5A", "value": "active hits"}
    ]},
    {"molecule": "[Cl-].[Na+]", "note": "[NaCl, sodium chloride]", "values": [
      {"measurement": "concentration above which FLAG-KDM5A showed little activity", "setting": "full-length FLAG-KDM5A; salt titration in the demethylation reaction", "value": "more than 50 mM"}
    ]},
    {"molecule": "[Fe+2]", "note": "[Fe(II)]", "values": [
      {"measurement": "Km", "setting": "full-length FLAG-KDM5A", "value": "~3", "unit": "µM"}
    ]},
    {"molecule": "O=C(O)/C=C/c1ccc(O)c(O)c1", "note": "[caffeic acid]", "values": [
      {"measurement": "outcome in the KDM5A inhibitor screen", "setting": "FLAG-KDM5A", "value": "active hits"}
    ]},
    {"molecule": "biotinylated H3K4me3 peptide", "values": [
      {"measurement": "average apparent Km of the H3K4me3 peptide: rate of the demethylation reaction over increasing peptide concentrations, product detected by AlphaScreen (24 nM FLAG-KDM5A)", "setting": "[4]", "value": 0.028, "unit": "µM"}
    ]},
    {"molecule": "[Cl-].[Cl-].[Zn+2]", "note": "[ZnCl2, Zinc chloride]", "values": [
      {"measurement": "concentration above which FLAG-KDM5A was sensitive", "setting": "full-length FLAG-KDM5A; titration in the demethylation reaction", "value": "above 2 μM"}
    ]},
    {"molecule": "N[C@@H](Cc1ccc(O)c(O)c1)C(=O)O", "note": "[levodopa]", "values": [
      {"measurement": "outcome in the KDM5A inhibitor screen", "setting": "FLAG-KDM5A", "value": "active hits"}
    ]},
    {"molecule": "C[C@@](Cc1ccc(O)c(O)c1)(NN)C(=O)O", "note": "[carbidopa]", "values": [
      {"measurement": "outcome in the KDM5A inhibitor screen", "setting": "FLAG-KDM5A", "value": "active hits"}
    ]}
  ]
}
